In paper PMC3733081 (Journal of chemical information and modeling, 2013):
Where two headings read alike, the source gives them in different places.

Tests used:
n-hexadecane/water = settings: for P (n-hexadecane/water partition coefficient): shake-flask, P=l1/l2, ± error
n-hexadecane/1-octanol = settings: for logP C16/O: calculated as logPC16/W-logPO/W
[1] = value without superscript b; ref ClogP database; cited from earlier work
[2] = value without superscript a: measured and listed in Table S1; cited from earlier work
[3] = 25 °C, shaking at 25 rpm, fit of eqs 1 and 2

Structure (SMILES)	P (n-hexadecane/water partition coefficient) (n-hexadecane/water; 25 °C)	l1 (rate parameter of transport from water to C16) (n-hexadecane/water; [3])	l2 (rate parameter of transport from C16 to water) (n-hexadecane/water; [3])	logP C16/O (n-hexadecane/1-octanol)	also measured
COc1ccccc1OC [1,2-dimethoxybenzene]	(2.723±1.352) ×10^1	1.171 ± 0.535 cm/h	(4.301±0.840)×10^−2 cm/h	–	–
C(=CC=Cc1ccccc1)C=Cc1ccccc1 [1,6-diphenyl-1,3,5-hexatriene]	–	–	–	0.188	–
FC1(F)CCC1(F)Cl (stereo not shown) [1-chloro-1,2,2-trifluorocyclobutane]	–	–	–	1.436	–
CCCCCCCO [1-heptanol]	–	–	–	−1.655	–
Cc1ccc(C=CC=CC=Cc2ccccc2)cc1 [1-methyl-4-(6-phenyl-1,3,5-hexatrien-1-yl)-benzene]	–	–	–	0.193	–
CCCCCCCCO [1-octanol]	–	–	–	−1.310	–
CCCCCO [1-pentanol]	–	–	–	−1.745	–
CCC(O)c1ccccc1 (stereo not shown) [1-phenyl-1-propanol]	3.153±0.630	(3.864±0.154)×10^−1 cm/h	(1.226±0.240)×10^−1 cm/h	–	–
C1=Cc2ccccc2C1 [1H-indene]	–	–	–	−0.078	logP O/W [1]: 2.920
O=C(O)CCCc1c[nH]c2ccccc12 [1H-indole-3-butanoic acid]	–	–	–	−3.531	–
C=CCc1ccccc1O [2-allylphenol]	–	(2.286±0.857)×10^−1 cm/h	(3.211±0.685)×10^−2 cm/h	–	–
NC(=O)Cc1ccccc1 [2-phenylacetamide]	–	(1.624±0.359)×10^−2 cm/h	(2.771±0.857)×10^−1 cm/h	–	–
Oc1ccccc1-c1ccccc1 [2-phenylphenol]	(3.536±1.329)×10^1	(3.699±0.935)×10^−1 cm/h	(1.046±0.291)×10^−2 cm/h	–	–
Nc1cccc(Br)c1 [3-bromoaniline]	(1.107±0.106)×10^1	(6.304±0.471)×10^−1 cm/h	(5.693±0.339)×10^−2 cm/h	–	–
Cc1c[nH]c2ccccc12 [3-methylindole]	–	–	–	−1.360	logP C16/W [2]: 0.810
O=C(O)CCc1ccc(C=CC=CC=Cc2ccccc2)cc1 [4-(6-phenyl-1,3,5-hexatrien-1-yl)-benzenepropanoic acid]	–	–	–	−2.702	–
O=C(c1ccccc1)c1ccc(Br)cc1 [4-bromobenzophenone]	(2.891±0.684)×10^2	(1.054±0.026)×10^1 cm/h	(3.646±0.858)×10^−2 cm/h	–	–
Cc1ccc(Cl)cc1[N+](=O)[O-] [4-chloro-2-nitrotoluene]	(8.660±3.938)×10^2	(2.168±0.605)×10^2 cm/h	(2.504±0.899)×10^−1 cm/h	–	–
Cc1cc(O)ccc1Cl [4-chloro-3-methylphenol]	1.651±0.701	(1.491±0.611)×10^−1 cm/h	(9.029±1.001)×10^−2 cm/h	–	–
O=C(c1ccccc1)c1ccc(Cl)cc1 [4-chlorobenzophenone]	(7.315±2.674)×10^2	(1.102±0.216)×10^2 cm/h	(1.507±0.465)×10^−1 cm/h	–	–
Nc1ccc([N+](=O)[O-])cc1 [4-nitroaniline]	(1.890±0.656)×10^−1	(1.192±0.406)×10^−1 cm/h	(6.295±0.407)×10^−1 cm/h	–	–
CC(C)(C)CC(C)(C)c1ccc(O)cc1 [4-tert-octylphenol]	–	–	–	−1.665	–
O=C(O)Cc1c2ccccc2cc2ccccc12 [9-anthracene-acetic acid]	–	–	–	−2.570	–
NCCc1c2ccccc2cc2ccccc12 [9-anthracene-ethanamine]	–	–	–	−1.549	–
OCc1c2ccccc2cc2ccccc12 [9-anthracenemethanol]	(2.211±0.554)×10^2	1.565 ± 0.236 cm/h	(7.080±1.416)×10^−3 cm/h	−0.700	logP O/W [1]: 3.040
Cc1c2ccccc2cc2ccccc12 [9-methylanthracene]	–	–	–	−0.015	logP O/W [1]: 5.070

Structure (SMILES)	P (n-hexadecane/water partition coefficient) (n-hexadecane/water; 25 °C)	l1 (rate parameter of transport from water to C16) (n-hexadecane/water; [3])	l2 (rate parameter of transport from C16 to water) (n-hexadecane/water; [3])	logP C16/O (n-hexadecane/1-octanol)	also measured
c1ccc2c(c1)[nH]c1ccccc12 [9H-carbazole]	–	–	–	−0.851	–
O=C(O)CCCCCCCCCCn1c2ccccc2c2ccccc21 [11-(9-carbazole)-undecanoic acid]	–	–	–	−1.418	–
CNC(=O)c1ccccc1 [N-methylbenzamide]	(6.450±1.180)×10^−1	(4.982±0.860)×10^−1 cm/h	(7.724±0.467)×10^−1 cm/h	–	–
Cn1c2ccccc2c2ccccc21 [N-methylcarbazole]	–	–	–	0.799	logP O/W [1]: 3.990
Cn1ccc2ccccc21 [N-methylindole]	–	–	–	0.969	–
CC(=O)Nc1ccccc1 [acetanilide]	(2.580±0.857)×10^−1	(1.315±0.434)×10^−1 cm/h	(5.104±0.179)×10^−1 cm/h	–	–
Nc1ccccc1 [aniline]	(7.860±1.639)×10^−1	(1.502±0.286)×10^−1 cm/h	(1.912±0.162)×10^−1 cm/h	–	–
CCOC(=O)c1ccc(N)cc1 [benzocaine, reference compound]	1.560±0.666	(1.163±0.488)×10^−1 cm/h	(7.455±0.577)×10^−2 cm/h	–	–
OCc1ccccc1 [benzylalcohol]	–	–	–	−1.530	logP C16/W [2]: −0.430
CC(C)(c1ccc(O)cc1)c1ccc(O)cc1 [bisphenol A]	–	–	–	−4.222	logP C16/W [2]: −0.902
Cn1c(=O)c2c(ncn2C)n(C)c1=O [caffeine, reference compound]	–	(5.485±0.851)×10^−2 cm/h	(2.309±0.430)×10^−1 cm/h	–	–
O=C=O [carbon dioxide]	–	–	–	–	affinity for n-hexadecane versus 1-octanol (logPC16/W vs logPO/W, Figure 1) (n-hexadecane/1-octanol; small molecules plotted as crosses in Figure 1): not observed
CN[C@@H](C)[C@H](O)c1ccccc1 [ephedrine, reference compound]	–	–	–	−1.770	logP C16/W [2]: −0.840
CCc1ccccc1 [ethylbenzene]	–	–	–	0.050	–
CCOC(=O)c1cccnc1 [ethylnicotinate]	3.583±0.983	(5.074±1.031)×10^−1 cm/h	(1.416±0.261)×10^−1 cm/h	–	–
O=CNc1ccccc1 [formanilide]	2.900±0.955)×10^−1	(1.532±0.501)×10^−1 cm/h	(5.283±0.213)×10^−1 cm/h	–	–
FC(F)(F)C(Cl)Br (stereo not shown) [halothane, reference compound]	–	–	–	−0.200	logP C16/W [2]: 2.100
c1ccc2[nH]ccc2c1 [indole]	5.660±0.633	(6.291±0.522)×10^−1 cm/h	(1.111±0.083)×10^−1 cm/h	−0.920	–
FC(F)OC(Cl)C(F)(F)F (stereo not shown) [isofluorane, reference compound]	–	–	–	−0.410	–
CCCCCc1cc(OC)c2c(c1)OC(C)(C)C1CC=C(C)CC21 (stereo not shown) [methoxy-Δ8-tetrahydrocannabinol]	–	–	–	0.027	logP O/W [1]: 8.060
CCCCCCCCCC [n-decane]	–	–	–	1.030	logP C16/W [2]: 7.010
O=[N+]([O-])c1ccccc1 [nitrobenzene]	–	–	–	–	l1 (rate parameter of transport from water to C16) (n-hexadecane/water): 1.162 ± 0.218 cm/h; l2 (rate parameter of transport from C16 to water) (n-hexadecane/water): (3.950±0.694)×10^−2 cm/h
c1ccncc1 [pyridine]	–	–	–	–	l1 (rate parameter of transport from water to C16) (n-hexadecane/water): (9.512±0.343)×10^−2 cm/h; l2 (rate parameter of transport from C16 to water) (n-hexadecane/water): (2.672±0.669)×10^−1 cm/h
c1ccc2ncccc2c1 [quinoline]	–	(3.766±0.198)×10^−1 cm/h	(3.566±1.200)×10^−2 cm/h	–	–
CC(C)c1c(O)ccc2c1CC[C@H]1C(C)(C)CCC[C@]21C [totarol]	–	–	–	−0.924	–
CCCCCc1cc(O)c2c(c1)OC(C)(C)[C@@H]1CC=C(C)C[C@@H]21 [Δ8-tetrahydrocannabinol]	–	–	–	−2.139	logP O/W [1]: 7.410
